EP1182931B1, “STABLE BIOCIDAL COMPOSITIONS” (NUFARM LIMITED, priority 1999, dated 2000)

What was measured:
[1] = tested on: Haemonchus; test: Trial C0040 sheep roundworm and tapeworm trial: worm count; format: in vivo; settings: lambs, oral, slaughter Day 7 and Day 8, arithmetic means
Procedure: (§1) Fifty three pasture fed 6-8 month old Romney lambs from the southern North Island, New Zealand that were naturally infected with tapeworms, were orally dosed with three times the standard dose of ivermectin (3 x 0.2 = 0.6mg/kg liveweight) to remove their naturally acquired roundworm infection while leaving their tapeworm burden. The animals were then housed indoors on slats to prevent natural reinfections with roundworms and each lamb was orally dosed daily for 5 days with a similar mixture of 5,000 roundworm larvae (total 25,000 larvae) consisting primarily of Haemonchus, Trichostrongylus, Ostertagia and Nematodirus. The larvae originated from four New Zealand sheep farms, three of which had evidence of resistance to one or more drench families. Lambs were injected with 0.5mL of a corticosteroid (opticortenol) two days prior to artificial oral larval infection. This was done to assist establishment of the worm larvae. 25 days after infection the animals were restrictively allocated to groups by bodyweight and also the presence of tapeworm infection, to one of seven treatment groups (Groups A-G). Four treatment groups (the untreated control and test products Groups A-D) had 8 animals per group, and three groups (E-G) contained 7 animals per group. The groups with 7 animals per group (E, F, G) were orally dosed with a single standard commercial product. All animals were slaughtered at Day 7 and Day 8 after treatment and total numbers of gastrointestinal roundworms and tapeworms counted.

[2] = tested on: Nematodirus; test: as above; format: in vivo; settings: lambs, oral, slaughter Day 7 and Day 8
Procedure: as §1

[3] = tested on: Ostertagia; test: as above; format: in vivo; settings: lambs, oral, slaughter Day 7 and Day 8
Procedure: as §1

[4] = tested on: Trichostrongylus; test: as above; format: in vivo; settings: lambs, oral, slaughter Day 7 and Day 8
Procedure: as §1

[5] = tested on: gastrointestinal roundworm; test: Sheep trial CO52: faecal egg count reduction; format: in vivo; settings: lambs, oral, six days after treatment, versus untreated controls, arithmetic mean
Procedure: An anthelmintic drench trial was conducted on a sheep farm in North Auckland, New Zealand using 67 Romney and Romney cross suffock lambs (18-35kg bodyweight) of mixed sex.
The 67 lambs were randomly allocated by egg count into 4 groups of 10 lambs (Groups A, B, C, D) and 3 groups of 9 lambs (Groups E, F, G). The 3 groups of 9 lambs (E, F G) were drenched with a commercial formulation from one of the three broad spectrum anthelmintic drench families consisting of albendazole, a member of the benzimidazole or white drenches (Group E), levamisole, a member of the imidazothiazole / tetrahydropyrimidazole or clear drenches (Group F) and Ivermectin, a member of the macrocyclic lactones (Group G). Of the 4 remaining groups, Group A remained as untreated controls, Group B received the unmineralised test product (formulation 00-27C) containing all 3 actives (albendazole, levamisole, ivermectin), Group C received the same basic formulation but with the addition of selenium as the sodium selenate (formulation 00-27B) and Group D received the same basic formulation but with the addition of both selenium and cobalt with cobalt given as the cobalt chelate (formulation 00-27A) - See Table 27.
All animals were weighed and dosed by syringe to the nearest 0.1ml with the appropriate product for that group. Six days after oral treatment the animals were slaughtered and faecal samples were collected at slaughter.

[6] = tested on: Protozoa; settings: Spectrum of Activity; cited from earlier work
[7] = tested on: Moniezia; test: Trial C0040 sheep roundworm and tapeworm trial: tapeworm count; format: in vivo; settings: lambs, oral, slaughter Day 7 and Day 8
Procedure: as §1, with “The groups with 7 animals per group (E, F, G) were orally dosed with a single standard commercial product.” left out

[8] = tested on: Gastrointestinal Worms; settings: Spectrum of Activity; cited from earlier work

Question: Which results are given for `CCCSc1ccc2nc(NC(=O)OC)[nH]c2c1` [Albendazole]?
Answer: reduction in worm numbers, Haemonchus [1]: 93%; reduction of Nematodirus in the small intestine [2]: 59%; removal of worm numbers, Ostertagia [3]: 64%; efficacy against Trichostrongylus in the small intestine [4]: 80%; reductions in egg count [5]: 63%; Protozoa [6]: +(Giardia); effect on tapeworm Moniezia [7]: slight trend to less Moniezia volume

Question: Which “Nematodes Gastrointestinal Worms” value [8] does the source give for `Cc1cc(C(C#N)c2ccc(Cl)cc2)c(Cl)cc1NC(=O)c1cc(I)cc(I)c1O` (stereo not drawn) [Closantel] here?
Answer: +(Haemonchus)

Question: Which Protozoa [6] does the source give for `COC(=O)Nc1nc2cc(Sc3ccccc3)ccc2[nH]1` [Fendendazole] here?
Answer: +(Giardia)

Question: Which results are given for `c1ccc([C@H]2CN3CCSC3=N2)cc1` [Levamisole]?
Answer: reduction of Nematodirus in the small intestine [2]: 99%; removal of worm numbers, Ostertagia [3]: 96%; reductions in egg count [5]: 22%

Question: For `N#Cc1cc(I)c(O)c([N+](=O)[O-])c1` [Nitroxyinil], which “Nematodes Gastrointestinal Worms” value [8] is on record?
Answer: +(Haemonchus)

Question: With `O=C(Nc1cc(Cl)cc(Cl)c1O)c1c(O)c(Cl)cc(Cl)c1Cl` [Oxydosanide] as the molecule, how does the “Nematodes Gastrointestinal Worms” value [8] read?
Answer: +(Haemonchus)

Question: For `O=C(Nc1ccc(Oc2ccc(Cl)cc2)c(Cl)c1)c1cc(I)cc(I)c1O` [Rafoxamide], which “Nematodes Gastrointestinal Worms” value [8] is on record?
Answer: +(Haemonchus)

Question: Which results are given for Ivermectin?
Answer: reduction of Nematodirus in the small intestine [2]: 100%; removal of worm numbers, Ostertagia [3]: 54%; reductions in egg count [5]: 79%
